Reference: patent publication US20260137706A1, “METHODS OF TREATING INFLAMMATORY DISEASES” (INTERLINE THERAPEUTICS, INC., priority 2023, published 2026)

Columns and labels:
[1] = target: T1, GST-RIPK2 fusion protein (human RIPK2, amino acids 1-310) (Homo sapiens, UniProt O43353); test: RIPK2 binding competition assay (TR-FRET, Tracer 199 displacement); settings: 10 nM Tracer 199, 1 nM GST-RIPK2, read-out: RIPK2 IC50
T1 construct: made in house; host or cells: baculovirus infected Sf9 cells
How it was run: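 IC50 derived from the TR-FRET emission ratio (665/620 nm, 337 nm excitation), normalized with no-inhibitor and no-enzyme controls. Incubation 45 min at 22 °C, pH 7.5 Tris buffer, with final 10 nM tracer, 1 nM Sf9-expressed GST-RIPK2 fragment (aa 1-310) and 0.5 nM Tb-labelled anti-GST.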

[2] = test system: NF-κB pathway (SEAP) in THP1-Dual cells; test: THP-1 Dual cell SEAP assay (L18-MDP stimulated); assay type: cell-based; settings: Homo sapiens, THP1-Dual, read-out: NF-κB THP1 IC50 bin
How it was run: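 IC50 values derive from non-linear regression of % inhibition, calculated against DMSO/L18-MDP-treated wells after media-only subtraction. NF-κB SEAP activity was read at OD 620-655 nm (QUANTI-Blue, 2 h, 37 °C) from supernatants of THP1-Dual cells. Cells had been compound-treated 30 min before overnight (20-24 h) stimulation with 10 ng/mL final L18-MDP.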

[3] = target: T2, binding of His-XIAP(BIR2)-avi fusion protein to GST-RIPK2 fusion protein (RIPK2/XIAP) (Homo sapiens, UniProt O43353); test: RIPK2-XIAP binding competition PPI assay (TR-FRET); settings: RIPK2/XIAP binding competition PPI assay; for Emax: Amax, read-out: PPI Amax bin; for IC50: read-out: PPI IC50 bin
T2 construct: made in house; host or cells: baculovirus infected Sf9 cells
T2 sequence (O43353 1-310 limits assumed): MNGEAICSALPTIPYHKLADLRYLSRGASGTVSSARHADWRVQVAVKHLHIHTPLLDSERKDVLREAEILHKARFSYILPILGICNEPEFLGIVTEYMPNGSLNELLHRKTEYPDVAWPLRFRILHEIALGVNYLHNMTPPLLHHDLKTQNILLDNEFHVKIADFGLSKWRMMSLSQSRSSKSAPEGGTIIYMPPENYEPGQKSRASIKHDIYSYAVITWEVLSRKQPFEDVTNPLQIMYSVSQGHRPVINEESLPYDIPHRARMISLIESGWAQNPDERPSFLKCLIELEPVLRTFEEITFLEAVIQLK
How it was run: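 Compounds (in DMSO, 100-fold stock) incubated 120 min at 23 °C with 1 nM GST-RIPK2 (aa 1-310) and 25 nM His-XIAP(BIR2 aa 152-231)-avi, plus anti-His-XL665 and anti-GST-Tb, in pH 7.5 Tris buffer. Read-out: 665/520 nm emission ratio. Normalized to no-inhibitor (0%) and 50 nM GSK583 (−100%); Amax binned A–D.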

T1 sequence (O43353 1-310): as the sequence (O43353 1-310 limits assumed) above

SMILES | IC50 [1] | IC50 [2] | Emax [3] | IC50 [3]
[2H]C([2H])([2H])Oc1c(F)cc(-c2cnc3cc(OC)c(S(=O)(=O)C(C)(C)C)cn23)cc1NS(=O)(=O)CC1COC1 [Example 133, N-(5-(6-(tert-butylsulfonyl)-7-methoxyimidazo[1,2-a]pyridin-3-yl)-3-fluoro-2-(methoxy-d3)phenyl)-1-(oxetan-3-yl)methanesulfonamide] | < 1 nM | < 50 nM | 55 to 80% | < 1 nM
COc1cc2ncc(-c3cc(F)c(OC)c(NS(=O)(=O)c4ccn(C)n4)c3)n2cc1S(=O)(=O)C(C)(C)C [Example 134, N-(5-(6-(tert-butylsulfonyl)-7-methoxyimidazo[1,2-a]pyridin-3-yl)-3-fluoro-2-methoxyphenyl)-1-methyl-1H-pyrazole-3-sulfonamide] | 1 to 2.5 nM | < 50 nM | > 80% | < 1 nM
COc1cc2ncc(-c3cc(F)c(OC)c(NS(=O)(=O)c4cnn(C)c4)c3)n2cc1S(=O)(=O)C(C)(C)C [Example 135, N-(5-(6-(tert-butylsulfonyl)-7-methoxyimidazo[1,2-a]pyridin-3-yl)-3-fluoro-2-methoxyphenyl)-1-methyl-1H-pyrazole-4-sulfonamide] | < 1 nM | < 50 nM | > 80% | < 1 nM
COc1cc2ncc(-c3cc(F)c(OC)c(NS(=O)(=O)c4cccnc4)c3)n2cc1S(=O)(=O)C(C)(C)C [Example 141, N-(5-(6-(tert-butylsulfonyl)-7-methoxyimidazo[1,2-a]pyridin-3-yl)-3-fluoro-2-methoxyphenyl)pyridine-3-sulfonamide] | < 1 nM | < 50 nM | > 80% | < 1 nM
COc1cc2ncc(-c3cc(F)c(OC)c(NS(=O)(=O)C4COC4)c3)n2cc1S(=O)(=O)C(C)(C)C [Example 142, N-(5-(6-(tert-butylsulfonyl)-7-methoxyimidazo[1,2-a]pyridin-3-yl)-3-fluoro-2-methoxyphenyl)oxetane-3-sulfonamide] | 1 to 2.5 nM | 250 to 1000 nM | > 80% | 1 to 2.5 nM
COc1cc2ncc(-c3cc(F)c(OC)c(NS(=O)(=O)CC(F)(F)F)c3)n2cc1S(=O)(=O)C(C)(C)C [Example 143, N-(5-(6-(tert-butylsulfonyl)-7-methoxyimidazo[1,2-a]pyridin-3-yl)-3-fluoro-2-methoxyphenyl)-2,2,2-trifluoroethane-1-sulfonamide] | 1 to 2.5 nM | 250 to 1000 nM | 55 to 80% | 1 to 2.5 nM
C=CS(=O)(=O)Nc1cc(-c2cnc3cc(OC)c(S(=O)(=O)C(C)(C)C)cn23)cc(OC)c1OC [Example 144, N-(5-(6-(tert-butylsulfonyl)-7-methoxyimidazo[1,2-a]pyridin-3-yl)-2,3-dimethoxyphenyl)ethenesulfonamide] | 1 to 2.5 nM | < 50 nM | > 80% | < 1 nM
COc1cc2ncc(-c3cc(F)c(OC)c(NS(=O)(=O)C4CCC4)c3)n2cc1S(=O)(=O)C(C)(C)C [Example 145, N-(5-(6-(tert-butylsulfonyl)-7-methoxyimidazo[1,2-a]pyridin-3-yl)-3-fluoro-2-methoxyphenyl)cyclobutanesulfonamide] | < 1 nM | < 50 nM | > 80% | < 1 nM
COc1cc2ncc(-c3cccc(NS(=O)(=O)C4CC4)c3)n2cc1S(=O)(=O)C(C)(C)C [Example 146, N-(3-(6-(tert-butylsulfonyl)-7-methoxyimidazo[1,2-a]pyridin-3-yl)phenyl)cyclopropanesulfonamide] | 2.5 to 20 nM | > 1000 nM | > 80% | 2.5 to 20 nM
COc1cc2ncc(-c3cccc(NS(=O)(=O)C4CCOCC4)c3)n2cc1S(=O)(=O)C(C)(C)C [Example 147, N-(3-(6-(tert-butylsulfonyl)-7-methoxyimidazo[1,2-a]pyridin-3-yl)phenyl)tetrahydro-2H-pyran-4-sulfonamide] | 2.5 to 20 nM | 250 to 1000 nM | > 80% | 2.5 to 20 nM
COc1cc2ncc(-c3cccc(NS(=O)(=O)C4CCOC4)c3)n2cc1S(=O)(=O)C(C)(C)C (stereo not shown) [Example 148, N-(3-(6-(tert-butylsulfonyl)-7-methoxyimidazo[1,2-a]pyridin-3-yl)phenyl)tetrahydrofuran-3-sulfonamide] | 2.5 to 20 nM | > 1000 nM | > 80% | 2.5 to 20 nM
COc1cc2ncc(-c3cccc(NS(=O)(=O)C4(C)CC4)c3)n2cc1S(=O)(=O)C(C)(C)C [Example 149, N-(3-(6-(tert-butylsulfonyl)-7-methoxyimidazo[1,2-a]pyridin-3-yl)phenyl)-1-methylcyclopropane-1-sulfonamide] | 2.5 to 20 nM | > 1000 nM | > 80% | 2.5 to 20 nM
COc1cc2ncc(-c3cccc(NS(=O)(=O)C4COC4)c3)n2cc1S(=O)(=O)C(C)(C)C [Example 150, N-(3-(6-(tert-butylsulfonyl)-7-methoxyimidazo[1,2-a]pyridin-3-yl)phenyl)oxetane-3-sulfonamide] | 2.5 to 20 nM | > 1000 nM | > 80% | 2.5 to 20 nM
COc1cc2ncc(-c3cccc(NS(=O)(=O)CC4CC4)c3)n2cc1S(=O)(=O)C(C)(C)C [Example 151, N-(3-(6-(tert-butylsulfonyl)-7-methoxyimidazo[1,2-a]pyridin-3-yl)phenyl)-1-cyclopropylmethanesulfonamide] | 1 to 2.5 nM | 250 to 1000 nM | > 80% | 1 to 2.5 nM
COc1cc2ncc(-c3cccc(NS(=O)(=O)C4CCC4)c3)n2cc1S(=O)(=O)C(C)(C)C [Example 152, N-(3-(6-(tert-butylsulfonyl)-7-methoxyimidazo[1,2-a]pyridin-3-yl)phenyl)cyclobutanesulfonamide] | 2.5 to 20 nM | 250 to 1000 nM | > 80% | 2.5 to 20 nM
COc1cc2ncc(-c3cccc(NS(=O)(=O)C4CCN(C(=O)OC(C)(C)C)C4)c3)n2cc1S(=O)(=O)C(C)(C)C (stereo not shown) [Example 153, tert-butyl 3-(N-(3-(6-(tert-butylsulfonyl)-7-methoxyimidazo[1,2-a]pyridin-3-yl)phenyl)sulfamoyl)pyrrolidine-1-carboxylate] | 2.5 to 20 nM | > 1000 nM | > 80% | > 20 nM
COc1cc2ncc(-c3cccc(NS(=O)(=O)C4CCNC4)c3)n2cc1S(=O)(=O)C(C)(C)C (stereo not shown) [Example 154, N-(3-(6-(tert-butylsulfonyl)-7-methoxyimidazo[1,2-a]pyridin-3-yl)phenyl)pyrrolidine-3-sulfonamide] | 2.5 to 20 nM | > 1000 nM | > 80% | 2.5 to 20 nM
COc1cc2ncc(-c3cccc(NS(=O)(=O)C4CN(C(=O)OC(C)(C)C)C4)c3)n2cc1S(=O)(=O)C(C)(C)C [Example 155, tert-butyl 3-(N-(3-(6-(tert-butylsulfonyl)-7-methoxyimidazo[1,2-a]pyridin-3-yl)phenyl)sulfamoyl)azetidine-1-carboxylate] | > 20 nM | > 1000 nM | > 80% | > 20 nM
COc1cc2ncc(-c3cccc(NS(=O)(=O)C4CNC4)c3)n2cc1S(=O)(=O)C(C)(C)C [Example 156, N-(3-(6-(tert-butylsulfonyl)-7-methoxyimidazo[1,2-a]pyridin-3-yl)phenyl)azetidine-3-sulfonamide] | > 20 nM | > 1000 nM | > 80% | > 20 nM
COc1cc2ncc(-c3cccc(NS(=O)(=O)C4CCN(C(=O)OC(C)(C)C)CC4)c3)n2cc1S(=O)(=O)C(C)(C)C [Example 157, tert-butyl 4-(N-(3-(6-(tert-butylsulfonyl)-7-methoxyimidazo[1,2-a]pyridin-3-yl)phenyl)sulfamoyl)piperidine-1-carboxylate] | > 20 nM | > 1000 nM | 55 to 80% | > 20 nM
COc1cc2ncc(-c3cccc(NS(=O)(=O)C4CCNCC4)c3)n2cc1S(=O)(=O)C(C)(C)C [Example 158, N-(3-(6-(tert-butylsulfonyl)-7-methoxyimidazo[1,2-a]pyridin-3-yl)phenyl)piperidine-4-sulfonamide] | > 20 nM | > 1000 nM | > 80% | > 20 nM
COc1cc2ncc(-c3cc(F)c(OC)c(NS(=O)(=O)CC4CC4)c3)n2cc1S(=O)(=O)C(C)(C)C [Example 159, N-(5-(6-(tert-butylsulfonyl)-7-methoxyimidazo[1,2-a]pyridin-3-yl)-3-fluoro-2-methoxyphenyl)-1-cyclopropylmethanesulfonamide] | < 1 nM | < 50 nM | > 80% | < 1 nM
